Laboratory results as given in patent publication US10106524B2, “2,3,4,5-tetrahydropyridin-6-amine and 3,4-dihydro-2H-pyrrol-5-amine compound inhibitors of beta-secretase” (Janssen Pharmaceutica NV, priority 2015, dated 2018).

Columns and labels:
[1] = target: T1, recombinant BACE1 protein (Homo sapiens, UniProt P56817); assay: BACE1 biochemical FRET based assay - Method 2; conditions: BACE1 0.04 μg/ml, 450 minutes, 20 μM substrate, pH 5.0; read-out: Biochemical FRET based assay- Method 2 pIC50 (converted)
T1 construct: recombinant BACE1 protein in a final concentration of 1 μg/ml
From the text: BACE1 Biochemical FRET Based Assay
(§1) This assay is a Fluorescence Resonance Energy Transfer Assay (FRET) based assay. The substrate for this assay is an APP derived 13 amino acids peptide that contains the ‘Swedish’ Lys-Met/Asn-Leu mutation of the amyloid precursor protein (APP) beta-secretase cleavage site. This substrate also contains two fluorophores: (7-methoxycoumarin-4-yl) acetic acid (Mca) is a fluorescent donor with excitation wavelength at 320 nm and emission at 405 nm and 2,4-Dinitrophenyl (Dnp) is a proprietary quencher acceptor. […] Upon cleavage by BACE1, the fluorophore Mca is separated from the quenching group Dnp, restoring the full fluorescence yield of the donor. The increase in fluorescence is linearly related to the rate of proteolysis.
Briefly in a 384-well format recombinant BACE1 protein in a final concentration of 0.04 μg/ml is incubated for 450 minutes at room temperature with 20 μM substrate in incubation buffer (50 mM Citrate buffer pH 5.0, 0.05% PEG) in the presence of compound or DMSO. Next the amount of proteolysis is directly measured by fluorescence measurement (excitation at 320 nm and emission at 405 nm) at different incubation times (0, 30, 60, 90, 120 and 450 min). For every experiment a time curve (every 30 min between 0 min and 120 min) is used to determine the time where we find the lowest basal signal of the high control. The signal at this time (Tx) is used to subtract from the signal at 450 min. Results are expressed in RFU, as difference between T450 and Tx.
(§2) A best-fit curve is fitted by a minimum sum of squares method to the plot of % Controlmin versus compound concentration. From this an IC50 value (inhibitory concentration causing 50% inhibition of activity) can be obtained.

[2] = test system: Abeta 1-42 produced and secreted by SKNBE2 cells expressing hAPP695; assay: Cellular αLisa assay in SKNBE2 cells - Abeta 42; assay type: cell-based, human; conditions: Homo sapiens, incubated for 18 hours, read-out: Cellular αLisa assay in SKNBE2 cells Abeta 42 pIC50 (converted)
Method: Cellular αLisa Assay in SKNBE2 Cells
In two αLisa assays the levels of Abeta total and Abeta 1-42 produced and secreted into the medium of human neuroblastoma SKNBE2 cells are quantified. The assay is based on the human neuroblastoma SKNBE2 expressing the wild type Amyloid Precursor Protein (hAPP695). The compounds are diluted and added to these cells, incubated for 18 hours and then measurements of Abeta 1-42 and Abeta total are taken. Abeta total and Abeta 1-42 are measured by sandwich αLisa. αLisa is a sandwich assay using biotinylated antibody AbN/25 attached to streptavidin coated beads and antibody Ab4G8 or cAb42/26 conjugated acceptor beads for the detection of Abeta total and Abeta 1-42 respectively. In the presence of Abeta total or Abeta 1-42, the beads come into close proximity. The excitation of the donor beads provokes the release of singlet oxygen molecules that trigger a cascade of energy transfer in the acceptor beads, resulting in light emission. Light emission is measured after 1 hour incubation (excitation at […] and emission at 615 nm).
as §2

[3] = target: T2, recombinant BACE2 protein (Homo sapiens, UniProt Q9Y5Z0); assay: BACE2 biochemical FRET based assay; conditions: BACE2 0.4 μg/nil, 450 minutes, 10 μM substrate, pH 5.0; read-out: Biochemical FRET based assay pIC50 (BACE2) (converted)
T2 construct: recombinant BACE2 protein in a final concentration of 0.4 μg/nil
T2 sequence (Q9Y5Z0 63-518): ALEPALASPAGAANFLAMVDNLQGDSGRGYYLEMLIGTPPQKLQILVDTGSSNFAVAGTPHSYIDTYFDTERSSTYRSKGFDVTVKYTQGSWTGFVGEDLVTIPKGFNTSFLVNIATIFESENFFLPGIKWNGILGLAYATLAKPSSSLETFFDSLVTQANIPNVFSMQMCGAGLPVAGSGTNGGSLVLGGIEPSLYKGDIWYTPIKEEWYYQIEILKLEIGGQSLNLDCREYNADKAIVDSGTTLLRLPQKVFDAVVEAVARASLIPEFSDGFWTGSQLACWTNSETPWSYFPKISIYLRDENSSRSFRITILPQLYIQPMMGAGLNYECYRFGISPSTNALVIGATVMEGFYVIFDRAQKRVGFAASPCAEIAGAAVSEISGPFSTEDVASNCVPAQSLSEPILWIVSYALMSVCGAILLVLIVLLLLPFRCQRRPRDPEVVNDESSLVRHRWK
From the text: BACE2 Biochemical FRET Based Assay
as §1, with “assay” for “assay is an APP derived 13 amino acids peptide that”, “the beta-secretase,” for “BACE1,”
Briefly in a 384-well format recombinant BACE2 protein in a final concentration of […] is incubated for 450 minutes at room temperature with 10 μM substrate in incubation buffer (50 mM Citrate buffer pH 5.0, 0.05% PEG, no DMSO) in the absence or presence of compound. Next the amount of proteolysis is directly measured by fluorescence measurement at T=0 and T=450 (excitation at 320 nm and emission at 405 nm). Results are expressed in RFU (Relative Fluorescence Units), as difference between T450 and T0.
as §2

T1 sequence (P56817 46-501): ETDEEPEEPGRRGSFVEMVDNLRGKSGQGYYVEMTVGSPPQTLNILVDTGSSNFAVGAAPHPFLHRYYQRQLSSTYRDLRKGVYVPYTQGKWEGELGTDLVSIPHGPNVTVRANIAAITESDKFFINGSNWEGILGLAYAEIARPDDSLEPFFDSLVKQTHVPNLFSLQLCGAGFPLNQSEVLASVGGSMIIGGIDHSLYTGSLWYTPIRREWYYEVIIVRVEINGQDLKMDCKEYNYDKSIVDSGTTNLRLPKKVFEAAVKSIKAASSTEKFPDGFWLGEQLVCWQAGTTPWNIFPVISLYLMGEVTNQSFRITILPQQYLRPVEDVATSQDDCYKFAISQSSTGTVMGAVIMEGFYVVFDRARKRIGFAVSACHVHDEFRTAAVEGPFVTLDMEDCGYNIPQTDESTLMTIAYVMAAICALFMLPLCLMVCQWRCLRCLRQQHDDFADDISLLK

| SMILES | IC50 [1] | IC50 [2] | IC50 [3] |
| --- | --- | --- | --- |
| CC1(c2cc(Nc3ncccc3C#N)ccc2F)N=C(N)CC1C(F)(F)F (racemic) [Compound 22, (±)-2-[3-[(2S*,3R*)-5-amino-2-methyl-3-(trifluoromethyl)-3,4-dihydropyrrol-2-1]-4-fluoro-anilino]pyridine-3-carbonitrile] | 3720 nM | 776 nM | ≥ 10000 nM |
| C[C@@]1(c2cc(NC(=O)c3ccc(C#N)cn3)ccc2F)N=C(N)C[C@@H]1C(F)(F)F [Compound 25, N-[3-[(2R,3S)-5-amino-2-methyl-3-(trifluoromethyl)-3,4-dihydropyrrol-2-yl]-4-fluoro-phenyl]-5-cyano-pyridine-2-carboxamide] | 182 nM | 60.3 nM | 1070 nM |
| C[C@]1(c2cc(NC(=O)c3ccc(C#N)cn3)ccc2F)N=C(N)C[C@H]1C(F)(F)F [Compound 26, N-[3-[(2S,3R)-5-amino-2-methyl-3-(trifluoromethyl)-3,4-dihydropyrrol-2-yl]-4-fluoro-phenyl]-5-cyano-pyridine-2-carboxamide] | > 10000 nM | > 8910 nM | > 10000 nM |
| COc1cnc(C(=O)Nc2ccc(F)c([C@]3(C)N=C(N)C[C@@H]3C(F)(F)F)c2)cn1 [Compound 27, N-[3-[(2R,3S)-5-amino-2-methyl-3-(trifluoromethyl)-3,4-dihydropyrrol-2-yl]-4-fluoro-phenyl]-5-methoxy-pyrazine-2-carboxamide] | 389 nM | 100 nM | 5890 nM |
| COc1cccnc1Nc1ccc(F)c([C@]2(C)N=C(N)C[C@@H]2C(F)(F)F)c1 [Compound 28, N-[3-[(2R,3S)-5-amino-2-methyl-3-(trifluoromethyl)-3,4-dihydropyrrol-2-yl]-4-fluoro-phenyl]-3-methoxy-pyridin-2-amine] | 1200 nM | 347 nM | 617 nM |
| COCCOc1cnc(C(=O)Nc2ccc(F)c([C@]3(C)N=C(N)C[C@@H]3C(F)(F)F)c2)cn1 [Compound 29, N-[3-[(2R,3S)-5-amino-2-methyl-3-(trifluoromethyl)-3,4-dihydropyrrol-2-yl]-4-fluoro-phenyl]-5-(2-methoxyethoxy)pyrazine-2-carboxamide] | 447 nM | 151 nM | > 20000 nM |
| COCCOc1cnc(C(=O)Nc2ccc(F)c([C@@]3(C)N=C(N)C[C@H]3C(F)(F)F)c2)cn1 [Compound 30, N-[3-[(2S,3R)-5-amino-2-methyl-3-(trifluoromethyl)-3,4-dihydropyrrol-2-yl]-4-fluoro-phenyl]-5-(2-methoxyethoxy)pyrazine-2-carboxamide] | > 10000 nM | > 8910 nM | > 20000 nM |
| C[C@@]1(c2cc(NC(=O)c3cnc(OCC(F)(F)F)cn3)ccc2F)N=C(N)C[C@@H]1C(F)(F)F [Compound 31, N-[3-[(2R,3S)-5-amino-2-methyl-3-(trifluoromethyl)-3,4-dihydropyrrol-2-yl]-4-fluoro-phenyl]-5-(2,2,2-trifluoroethoxy)pyrazine-2-carboxamide] | 457 nM | 257 nM | > 20000 nM |
| C[C@]1(c2cc(NC(=O)c3cnc(OCC(F)(F)F)cn3)ccc2F)N=C(N)C[C@H]1C(F)(F)F [Compound 32, N-[3-[(2S,3R)-5-amino-2-methyl-3-(trifluoromethyl)-3,4-dihydropyrrol-2-yl]-4-fluoro-phenyl]-5-(2,2,2-trifluoroethoxy)pyrazine-2-carboxamide] | > 10000 nM | > 8910 nM | > 20000 nM |

The next lines start with the values.

| IC50 [1] | IC50 [2] | IC50 [3] | SMILES |
| --- | --- | --- | --- |
| 229 nM | 36.3 nM | 513 nM | C[C@@]1(c2cc(NC(=O)c3ccc(Br)cn3)ccc2F)N=C(N)C[C@@H]1C(F)(F)F [Compound 33, N-[3-[(2R,3S)-5-amino-2-methyl-3-(trifluoromethyl)-3,4-dihydropyrrol-2-yl]-4-fluoro-phenyl]-5-bromo-pyridine-2-carboxamide] |
| > 10000 nM | – | – | COc1cnc(C(=O)Nc2ccc(F)c([C@@]3(C)N=C(N)C[C@H]3C(F)(F)F)c2)cn1 [Compound 34, N-[3-[(2S,3R)-5-amino-2-methyl-3-(trifluoromethyl)-3,4-dihydropyrrol-2-yl]-4-fluoro-phenyl]-5-methoxy-pyrazine-2-carboxamide] |
| > 10000 nM | – | – | Cc1nc(C(=O)Nc2ccc(F)c([C@]3(C)N=C(N)C[C@@H]3C(F)(F)F)c2)co1 [Compound 35, N-[3-[(2R,3S)-5-amino-2-methyl-3-(trifluoromethyl)-3,4-dihydropyrrol-2-yl]-4-fluoro-phenyl]-2-methyl-oxazole-4-carboxamide] |
| 1020 nM | – | – | Cc1nc(C(=O)Nc2ccc(F)c([C@@]3(C)N=C(N)C[C@H]3C(F)(F)F)c2)co1 [Compound 36, N-[3-[(2S,3R)-5-amino-2-methyl-3-(trifluoromethyl)-3,4-dihydropyrrol-2-yl]-4-fluoro-phenyl]-2-methyl-oxazole-4-carboxamide] |
| > 10000 nM | – | – | COc1cccnc1Nc1ccc(F)c([C@@]2(C)N=C(N)C[C@H]2C(F)(F)F)c1 [Compound 37, N-[3-[(2S,3R)-5-amino-2-methyl-3-(trifluoromethyl)-3,4-dihydropyrrol-2-yl]-4-fluoro-phenyl]-3-methoxy-pyridin-2-amine] |
| > 10000 nM | – | – | C[C@]1(c2cc(Nc3ncccc3C#N)ccc2F)N=C(N)C[C@H]1C(F)(F)F [Compound 38, 2-[3-[(2S,3R)-5-amino-2-methyl-3-(trifluoromethyl)-3,4-dihydropyrrol-2-yl]-4-fluoro-anilino]pyridine-3-carbonitrile] |
| 2950 nM | – | – | C[C@@]1(c2cc(Nc3ncccc3C#N)ccc2F)N=C(N)C[C@@H]1C(F)(F)F [Compound 39, 2-[3-[(2R,3S)-5-amino-2-methyl-3-(trifluoromethyl)-3,4-dihydropyrrol-2-yl]-4-fluoro-anilino]pyridine-3-carbonitrile] |
| > 10000 nM | – | – | C[C@]1(c2cc(NC(=O)c3ccc(Br)cn3)ccc2F)N=C(N)C[C@H]1C(F)(F)F [Compound 41, N-[3-[(2S,3R)-5-amino-2-methyl-3-(trifluoromethyl)-3,4-dihydropyrrol-2-yl]-4-fluoro-phenyl]-5-bromo-pyridine-2-carboxamide] |
